Experimental data as given in US20020026053A1, “Novel 3-(substituted) -2- indolinones compounds and use thereof as inhibitors of protein kinase activity” (priority 1997, published 2002).

These compounds were tested on FLK-1 receptor (assay: FLK-1 Assay (cellular/catalytic ELISA, VEGF-stimulated phosphotyrosine)).
Assay type: cell-based
Parameters: concentration or dose not given beside the values
Procedure, shortened: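 NIH3T3 C7#3 cells engineered to express Flk-1 were serum-starved overnight (0.1% FBS), then exposed to compound for 2 h at 37 °C (final dilution 1:200, 0.5% DMSO) before VEGF stimulation. Lysates captured on anti-FLK-1 antiserum plates; phosphotyrosine detected by UB40 antibody/POD-ABTS ELISA versus untreated controls.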

Compared with `CC(C)(C)c1ccc(C=C2C(=O)Nc3c(Br)cc(Br)cc32)cc1` [10734/A10], `O=C1Nc2ccc(I)cc2C1=Cc1cc(Br)cc(Br)c1O` [10734/B07] is higher in “Flk Kinase % Inhibition (P.110)” value: 4.4% for the first, 9.1% for the second.

Compared with `COc1cc(Br)c(O)c(C=C2C(=O)Nc3c(Br)cc(Br)c(C)c32)c1` [10718/H03], `Cc1c(Br)cc(Br)c2c1C(=Cc1ccc3ccccc3c1O)C(=O)N2` [10718/H04] is lower in “Flk Kinase % Inhibition (P.110)” value: −5.0% for the first, −5.7% for the second.

Going from `O=C1Nc2ccc(CCCl)cc2C1=Cc1cc(Cl)cc(Cl)c1O` [10734/G03] to `CNS(=O)(=O)c1ccc2c(c1)C(=Cc1cccc(F)c1O)C(=O)N2` [10734/D08], the “Flk Kinase % Inhibition (P.110)” value falls from 18.7% to 2.5%.

Going from `CCOc1cccc(C=C2C(=O)Nc3ccc(Br)c(C)c32)c1O` [10734/C02] to `O=C1Nc2ccc(S(=O)(=O)Nc3ccc(C(F)(F)F)cc3)cc2C1=Cc1cc(Cl)ccc1O` [10734/E04], the “Flk Kinase % Inhibition (P.110)” value rises from −3.9% to 10.7%.

In the case of `O=C1Nc2ccc(S(=O)(=O)Nc3ccc(C(F)(F)F)cc3)cc2C1=Cc1ccc(Br)s1` [10734/E11], the “Flk Kinase % Inhibition (P.110)” value was 19.2%.
